{"source": "paper PMC12724231", "about": "“APC24-7, a covalent combination of boronic acid and chelator moieties, restores β-lactam efficiency against metallo-β-lactamase-producers” (mSphere, 2025)", "key": {"[1]": {"tested_on": "T1, Escherichia coli BAA-2469™", "T1 construct": "ATCC BAA-2469", "assay": "microbe, parasite or virus in culture", "design": "species or system clinical isolates of E. coli and K. pneumoniae", "details": "Escherichia coli, BAA2469; inhibitor alone; read-out: MIC APC24-7", "description": "(§1) MICs for clinical isolates were determined in a broth microdilution assay according to Clinical and Laboratory Standards Institute (CLSI) ([75]), using cation-adjusted Mueller-Hinton broth (Thermo Fisher Scientific, Lenexa, USA). The direct colony suspension method was utilized by preparing an inoculum of an OD600 0.17, except for E. coli #36 in which 0.10 was used, which equated to a concentration of 10^8 colony-forming units (CFU) per mL. Inoculum controls were included for all assays ([76]). […] Subsequently, we aimed to identify a potent β-lactam/APC24-7 combination capable of reversing β-lactamase-mediated BL resistance in our clinical isolates. All 16 isolates were exposed to increasing concentrations of meropenem (carbapenem), aztreonam (monobactam), ceftazidime and cefepime (cephalosporins), as well as amoxicillin (penicillin), both in the absence and presence of 57 µM (32 mg/L) of APC24-7. The effectiveness of these combinations was assessed based on their ability to resensitize the clinical isolates according to the clinical breakpoints (EUCAST clinical breakpoint table version 15.0, www.eucast.org)."}, "[2]": {"tested_on": "T2, Klebsiella pneumoniae BAA-2146™", "T2 construct": "ATCC BAA-2146", "assay": "microbe, parasite or virus in culture", "design": "species or system clinical isolates of E. coli and K. pneumoniae", "details": "Klebsiella pneumoniae, BAA2146; inhibitor alone; read-out: MIC APC24-7", "description": "as §1"}, "[3]": {"tested_on": "T3, Klebsiella pneumoniae BAA1705™", "T3 construct": "ATCC BAA-1705", "assay": "microbe, parasite or virus in culture", "design": "species or system clinical isolates of E. coli and K. pneumoniae", "details": "Klebsiella pneumoniae, BAA1705; inhibitor alone; read-out: MIC APC24-7", "description": "as §1"}, "[4]": {"tested_on": "T4, Klebsiella pneumoniae K46-62", "T4 construct": "K46-62", "assay": "microbe, parasite or virus in culture", "design": "species or system clinical isolates of E. coli and K. pneumoniae", "details": "Klebsiella pneumoniae, K4662; inhibitor alone; read-out: MIC APC24-7", "description": "as §1"}, "Escherichia coli MP21-05": {"tested_on": "T5, Escherichia coli MP21-05", "T5 construct": "MP21-05", "assay": "microbe, parasite or virus in culture", "design": "species or system E. coli E. cloni 10G; Microdilution MIC of inhibitor alone in LB, OD600 read-out, E. coli 10G without or with empty vector", "details": "MP2105, inhibitor alone, read-out: MIC APC24-7", "description": "(§2) Susceptibility testing of isogenic E. coli E. cloni 10G (Table 2) was determined by both the microdilution assay. […] Overnight cultures were prepared in LB supplemented with 25 mg/L chloramphenicol at 37°C under shaking at 700 rpm. The overnight cultures were diluted in PBS to 10^6 CFU/ mL, followed by inoculation in LB to ~10^5 CFU in 384-well plates (VWR, Radnor, PA, USA). Plates were prepared with twofold increasing concentrations of meropenem and cefepime ([…], respectively) to a total inoculated volume of 100 µL Plates were incubated at 37°C without shaking for 19–21 h. OD600 was determined in a SpectraMax Plus plate reader (Molecular Devices)."}, "Escherichia coli MP32-64": {"tested_on": "T6, Escherichia coli MP32-64", "T6 construct": "MP32-64", "assay": "microbe, parasite or virus in culture", "design": "species or system E. coli E. cloni 10G; Microdilution MIC of inhibitor alone in LB, OD600 read-out, E. coli 10G without or with empty vector", "details": "MP3264, inhibitor alone, read-out: MIC APC24-7", "description": "as §2"}, "NDM-1": {"target": "T7, NDM-1 (Klebsiella pneumoniae, UniProt C7C422)", "T7 construct": "gene blaNDM-1", "T7 sequence (C7C422 29-270 limits assumed)": "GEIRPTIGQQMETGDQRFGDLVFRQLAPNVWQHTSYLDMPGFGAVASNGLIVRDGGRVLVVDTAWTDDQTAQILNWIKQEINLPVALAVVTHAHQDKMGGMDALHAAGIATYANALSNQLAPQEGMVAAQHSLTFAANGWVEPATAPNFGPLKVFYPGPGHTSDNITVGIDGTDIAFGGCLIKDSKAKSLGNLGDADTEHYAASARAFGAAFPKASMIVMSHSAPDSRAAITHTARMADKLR", "assay": "biochemical", "design": "Residual beta-lactamase activity; meropenem (NDM-1, 300 nm) or nitrocefin (others, 480 nm) hydrolysis, 1 uM Zn2+ (OXA-48: bicarbonate)", "description": "(§3) IC50 determination with purified enzymes was performed as previously described ([40]). In brief, enzymes were diluted in 50 mM HEPES, pH 7.5, supplemented with 1 µM Zn^2+. For OXA-48, 50 mM HEPES, pH 7.5, was supplemented with 50 mM sodium bicarbonate buffer solution (Sigma Aldrich). Enzymes and inhibitors were mixed at various inhibitor concentrations, and absorbance was measured by spectrophotometry (Table S5). For NDM-1 and MBP-NDM-9, the hydrolysis of meropenem (24 µM) was monitored at 300 nm using UV- transparent 96-well plates (Corning, Kennebunk, ME). For all other enzymes, nitrocefin (24 µM, Millipore Sigma, USA) hydrolysis was monitored at 480 nm. The residual enzyme activity at various inhibitor concentrations was calculated in comparison to the initial reaction velocity of the inhibitor-free […] control. Dose-response curves were fitted using nonlinear regression in GraphPad Prism v. 10.5.0. All tests were performed at least in duplicates at 25°C."}, "OXA-48": {"target": "OXA-48 (Klebsiella pneumoniae, UniProt Q6XEC0)", "sequence (Q6XEC0 23-265 limits assumed)": "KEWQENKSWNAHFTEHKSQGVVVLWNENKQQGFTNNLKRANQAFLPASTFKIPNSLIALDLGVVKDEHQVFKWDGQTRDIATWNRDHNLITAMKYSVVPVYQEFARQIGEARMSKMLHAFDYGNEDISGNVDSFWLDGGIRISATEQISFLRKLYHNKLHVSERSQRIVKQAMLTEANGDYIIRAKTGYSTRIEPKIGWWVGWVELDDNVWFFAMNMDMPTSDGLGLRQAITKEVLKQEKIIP", "assay": "biochemical", "design": "Residual beta-lactamase activity; meropenem (NDM-1, 300 nm) or nitrocefin (others, 480 nm) hydrolysis, 1 uM Zn2+ (OXA-48: bicarbonate)", "description": "as §3"}, "VIM-7": {"target": "VIM-7 (Pseudomonas aeruginosa, UniProt Q840P9)", "sequence (Q840P9 18-265)": "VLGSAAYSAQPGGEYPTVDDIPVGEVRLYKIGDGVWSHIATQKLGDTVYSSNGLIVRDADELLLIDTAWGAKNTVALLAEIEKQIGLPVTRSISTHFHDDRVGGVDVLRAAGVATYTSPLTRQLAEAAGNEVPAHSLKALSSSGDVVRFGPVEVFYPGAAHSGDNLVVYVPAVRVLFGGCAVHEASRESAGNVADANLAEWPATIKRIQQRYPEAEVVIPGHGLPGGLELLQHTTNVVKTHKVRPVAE", "assay": "biochemical", "design": "Residual beta-lactamase activity; meropenem (NDM-1, 300 nm) or nitrocefin (others, 480 nm) hydrolysis, 1 uM Zn2+ (OXA-48: bicarbonate)", "description": "as §3"}, "VIM-2": {"target": "T8, VIM-2 (Pseudomonas aeruginosa, UniProt Q9K2N0)", "T8 construct": "gene blaVIM-2", "design": "Residual beta-lactamase activity; meropenem (NDM-1, 300 nm) or nitrocefin (others, 480 nm) hydrolysis, 1 uM Zn2+ (OXA-48: bicarbonate)", "details": "inhibitor", "description": "as §3"}}}
{"smiles": "O=C(N[C@H]1Cc2cccc(C(=O)O)c2OB1O)c1ccc(CNCCN(Cc2ccccn2)Cc2ccccn2)cc1", "note": "[APC24-7]", "values": [{"measurement": "MIC", "setting": "[1]", "result": "> 906", "unit": "µM"}, {"measurement": "MIC", "setting": "[2]", "result": "> 906", "unit": "µM"}, {"measurement": "MIC", "setting": "[3]", "result": "> 906", "unit": "µM"}, {"measurement": "MIC", "setting": "[4]", "result": "> 906", "unit": "µM"}, {"measurement": "MIC", "setting": "Escherichia coli MP21-05", "result": "> 906", "unit": "µM"}, {"measurement": "MIC", "setting": "Escherichia coli MP32-64", "result": "> 906", "unit": "µM"}, {"measurement": "IC50", "setting": "NDM-1", "result": 140, "unit": "nM"}, {"measurement": "IC50", "setting": "OXA-48", "result": 420, "unit": "nM"}, {"measurement": "IC50", "setting": "VIM-7", "result": 1080, "unit": "nM"}, {"measurement": "IC50", "setting": "VIM-2", "result": 110, "unit": "nM"}]}
